Source: patent US9687485B2, “Combination therapy with glutaminase inhibitors” (Calithera Biosciences, Inc., priority 2014, dated 2017)
Read-outs that look alike come from different tables or passages of the source.

Experiments:
Type in all cases: cell-based
[1] = tested on: multiple myeloma cell lines; assay: Co-administration, cell viability (Cell Titer Glo), multiple myeloma
Protocol: (§1) Cells were treated with a dose titration of either CB-839, an anti-cancer agent or a mixture thereof for 72 hours in growth media. At the end of the incubation, cell viability was measured using Cell Titer Glo as per manufacturer's protocol (Promega, Madison, Wis.). Cell proliferation for all compound treatments are represented as bar graphs, where luminescent output, Relative Light Units (RLU), correlates with viable cell number. Combination indices were calculated using the Calcusyn program (biosoft.com) and reported for individual mixtures of CB-839 and each agent.

[2] = tested on: triple negative breast cancer cell lines; assay: Co-administration, cell viability (Cell Titer Glo), triple negative breast cancer
Protocol: as §1

lung cancer cell lines = assay: Co-administration, cell viability (Cell Titer Glo), lung cancer
Protocol: as §1

[3] = tested on: renal cell carcinoma cell lines; assay: Co-administration, cell viability (Cell Titer Glo), renal cell carcinoma
Protocol: as §1

[4] = tested on: renal clear cell carcinoma cells; assay: Co-administration, cell viability, renal clear cell carcinoma (FIG. 25); conditions: combination with everolimus
Protocol: as §1

H1650 NSCLC cell lines = assay: Co-administration, cell viability, NSCLC (FIG. 26)
Protocol: as §1

P493-6 (myc “on”) cells = assay: Cell Proliferation Assay; conditions: read-out: Cell prolif P493 72 h IC50
Protocol: P493-6 (myc “on”) cells were maintained in growth media (RPMI-1640, 10% FBS, 2 mM glutamine, 100 units/ml Penicillin and 100 μg/ml streptomycin) at 37° C. with 5% CO2. For compound assay, P493-6 cells were plated in 96-well V-bottom plates on the day of compound addition in 50 μl of growth media at a cell density of 200,000 cells/ml (10,000 cells/well). Compounds were serially diluted in 100% DMSO at 200-times the final concentration. Compounds were diluted 100-fold into growth media and then 50 μl of this mixture was added to cell plates making the final concentration of DMSO 0.5%. Cells were incubated with compound for 72 hrs at 37° C. with 5% CO2 and analyzed for antiproliferative effects either by Cell Titer Glo (Promega) or FACS analysis using the Viacount (Millipore) kit on the Guava instrument.

Structure (SMILES): O=C(Cc1cccc(OC(F)(F)F)c1)Nc1ccc(CCCCc2nnc(NC(=O)Cc3ccccn3)s2)nn1 [CB-839]
- interaction of CB-839 with vincristine ([1]; FIG. 1, combination with vincristine, 72 hours): synergy
- interaction of CB-839 with AKT inhibitor MK2206 ([1]; FIG. 2, combination with MK2206, 72 hours): strong synergy
- interaction of CB-839 with mTOR inhibitor everolimus ([1]; FIG. 3, combination with everolimus, 72 hours): strong synergy
- interaction of CB-839 with MEK inhibitor trametinib ([1]; FIG. 4, combination with trametinib, 72 hours): strong synergy
- interaction of CB-839 with RTK inhibitor sorafenib ([1]; FIG. 5, combination with sorafenib, 72 hours): strong synergy
- interaction of CB-839 with carboplatin ([2]; FIG. 6, combination with carboplatin, 72 hours): therapeutic interaction
- interaction of CB-839 with cytidine analog gemcitabine ([2]; FIG. 7, combination with gemcitabine, 72 hours): additive effect
- interaction of CB-839 with doxorubicin ([2]; FIG. 8, combination with doxorubicin, 72 hours): therapeutic interaction
- interaction of CB-839 with mTOR inhibitor everolimus ([2]; FIG. 9, combination with everolimus, 72 hours): synergy
- interaction of CB-839 with AKT inhibitor MK2206 ([2]; FIG. 10, combination with MK2206, 72 hours): synergy
- interaction of CB-839 with EGFR inhibitor erlotinib (lung cancer cell lines; FIG. 11, combination with erlotinib, 72 hours): synergy
- interaction of CB-839 with MEK inhibitor trametinib (lung cancer cell lines; FIG. 12, combination with trametinib, 72 hours): synergy
- interaction of CB-839 with mTOR inhibitor everolimus (lung cancer cell lines; FIG. 13, combination with everolimus, 72 hours): synergy
- interaction of CB-839 with mTOR inhibitor temsirolimus (lung cancer cell lines; FIG. 14, combination with temsirolimus, 72 hours): synergy
- interaction of CB-839 with AKT inhibitor MK2206 (lung cancer cell lines; FIG. 15, combination with MK2206, 72 hours): synergy
- interaction of CB-839 with PI3K/mTOR inhibitor BEZ235 (lung cancer cell lines; FIG. 16, combination with BEZ235, 72 hours): synergy
- interaction of CB-839 with RTK inhibitor sorafenib ([3]; FIG. 17, combination with sorafenib, 72 hours): synergy
- interaction of CB-839 with C-kit and pan-RTK inhibitor sunitinib ([3]; FIG. 18, combination with sunitinib, 72 hours): synergy
- interaction of CB-839 with pan-RTK inhibitor pazopanib ([3]; FIG. 19, combination with pazopanib, 72 hours): synergy
- interaction of CB-839 with mTOR inhibitor everolimus ([3]; FIG. 20, combination with everolimus, 72 hours): synergy
- interaction of CB-839 with mTOR inhibitor temsirolimus ([3]; FIG. 21, combination with temsirolimus, 72 hours): synergy
- interaction of CB-839 with MEK inhibitor trametinib ([3]; FIG. 22, combination with trametinib, 72 hours): synergy
- interaction of CB-839 with AKT inhibitor MK2206 ([3]; FIG. 23, combination with MK2206, 72 hours): synergy
- interaction of CB-839 with PI3K/mTOR inhibitor BEZ235 ([3]; FIG. 24, combination with BEZ235, 72 hours): therapeutic interaction
- effect of the combination of CB-839 and everolimus [4]: synergistic antiproliferative activity
- effect of the combination of CB-839 and erlotinib (H1650 NSCLC cell lines; combination with erlotinib, erlotinib-resistant model): enhances the anti-tumor effects of each individual compound

Structure (SMILES): [2H]C([2H])(CCc1nnc(N)s1)C([2H])([2H])c1ccc(NC(=O)Cc2cccc(OC(F)(F)F)c2)nn1 [Compound 726]
- IC50 (P493-6 (myc “on”) cells; P493-6, 72 h): 0.61 µM

Structure (SMILES): [2H]C([2H])(CCc1nnc(NC(=O)Cc2ccccn2)s1)C([2H])([2H])c1ccc(NC(=O)Cc2cccc(OC(F)(F)F)c2)nn1 [Compound 727]
- IC50 (P493-6 (myc “on”) cells; 72 h): 0.012 µM

Structure (SMILES): C#Cc1cccc(Nc2ncnc3cc(OCCOC)c(OCCOC)cc23)c1 [erlotinib, reference compound]
- sensitivity of the cells to erlotinib (H1650 NSCLC cell lines; erlotinib alone): resistant
